Values of other authors in US20050148628A1 (priority 2002, published 2005).

Conditions: in vivo

Question: For OC(c1cc(C(F)(F)F)nc2c(C(F)(F)F)cccc12)C1CCCCN1 (stereo not shown) [mefloquine], which terminal elimination half-life is on record?
Answer: 2-3 weeks
